Patent US20240082212A1, “USE OF MDMA FOR TREATMENT OF STRESS-RELATED DISORDERS” (priority 2022, published 2024)

Experiments:
PTSD participants = conditions: cited from earlier work
rats = conditions: 4 hourly SC injections at 10 mg/kg/injection (Biezonski et al., 2013); cited from earlier work
C57BL/6 mice [1] = assay: Mouse locomotor activity over 11 days after single administration
Method: Methods. Male C57BL/6 mice (n=10-12 per group) from Jackson Laboratories, US (10-12 weeks of age), were assigned randomly to treatment groups. The animals were acclimated to the laboratory for at least five days prior to experimental manipulation. […] Standard rodent chow and water were available ad libitum, except during experimental test sessions. Animals were maintained in a controlled environment, and temperature and humidity were recorded continuously in the holding room.
The animal procedures were conducted according to established and approved protocols. On each experimental day, animals were acclimated to a procedure room adjacent to the testing room for at least 30 minutes prior to the start of experimental sessions. To evaluate acute compound effects on activity, an animal was administered a single dose of test article 30 minutes prior to individual placement in a novel test chamber on experimental day 1. Activity was detected using photo beams (e.g., 16×16 beams with a space of 2 cm between beams, Med Associates®) and recorded using the Activity Monitor™ program designed by Med Associates®. The primary endpoint was total distance traveled (cm), as a measure of locomotion. Additional activity measures included total ambulatory counts, ambulatory time (sec), vertical counts and vertical time (sec). All endpoints were recorded and analyzed over a 30-minute test period. At the end of the test session, each animal was returned to its home cage. To evaluate potential lasting effects on activity following single administration of compounds, each animal was re-evaluated in the same test chamber on experimental days 2, 6, and 11, without additional test article administration.
Animals were randomly assigned to treatment groups and testing was conducted in a manner counterbalancing treatment groups. Activity measures were analyzed statistically using 2-way analysis of variance (ANOVA) with experimental day as the within-subjects factor and treatment as the between-subjects factor. Following a significant overall ANOVA (p<0.05), post hoc comparisons between test article and vehicle conditions were made using Fisher's Least Significant Difference (LSD, p<0.05).

C57BL/6 mice [2] = assay: Mouse extinction of conditioned fear assay; assay type: in vivo
Method: Racemic MDMA and R(−)-MDMA were evaluated for extinction of fear memory. The study utilized a mouse extinction of conditioned fear assay. A conditioned fear response is induced by pairing a previously neutral stimulus (conditioned stimulus; CS, such as an auditory tone) and aversive stimulus (unconditioned stimulus; US, such as […]). The fear response is later extinguished with repeated re-exposure to the CS in the absence of the US. This is a useful model for understanding learning and memory processes required for long-term recovery from PTSD, because it resembles exposure-based therapy, wherein repeated exposure to a fear-eliciting stimulus or memory promotes a reduced fear response to future reminders of the trauma. […] The current experiment investigated the ability of varying doses of R(−)-MDMA to facilitate extinction of conditioned fear in mice.
Standard rodent chow and water was available ad libitum.
The animal procedures were conducted according to established protocols approved by the IACUC committee and Melior Discovery Inc. Standard Operation Procedures (SOP). The behavioral procedure was adapted from Young et al., Transl Psychiatry 5, e634 (2015) with slight modifications. Mice were handled for two consecutive days for four minutes each day and injected with drug vehicles prior to the experiment. […] Fear conditioning was conducted in individual automated chambers built by Kinder Scientific (Poway, CA) that detect movement with infrared beams. On Day 1, Conditioning, each animal was placed in a chamber and presented a training session (Context A). An almond scent was present under the grid floor during the entire session. The training procedure consisted of a 2-minute habituation followed by a 30-second, 80 dB tone (CS). During the last 2 seconds of the tone, the animal received a 1 mA foot shock (US). This US-CS procedure occurred once for a total of one paired presentation of tone and shock. Freezing behavior (immobility) was recorded in 5-second intervals during the session. Percent baseline freezing behavior was determined in the 2-minute habituation period. After the session, animals were returned to their cages in the holding room. Animals were not manipulated on Day 2. On Day 3, Extinction Training, two days (48 hours) following fear conditioning, each animal was placed in Context B, in which the tactile and odor cues of the conditioning chambers were altered with a different (lemon) scent and black Plexiglas floor placed over the grid floor. Following a 2-minute acclimation period, the animal received four 30-second presentations of the CS (tone) in the absence of the US (foot shock), with a 45-second interval between presentations and 30 seconds of chamber consolidation. Immobility was recorded in 5-second intervals to measure baseline freezing response to the altered context, and freezing response to each tone/cue presentation. On Day 3, each animal was administered vehicle or racemic MDMA by intraperitoneal (IP) injection at 30 minutes prior, to the extinction training session. On Days 4, 8, and 13, Extinction Testing sessions, each animal was placed in Context B. Following a 2-minute acclimation period, each animal received four 30-second presentations of the CS (tone) in the absence of the US (foot shock), with a 45-second interval between presentations and 30 seconds of chamber consolidation. Immobility was recorded in 5-second intervals to measure baseline freezing response to the altered context, and freezing response to each tone/cue presentation.
Each animal in each treatment group received IP administration of vehicle or R(−)-MDMA or racemic MDMA at 30 minutes prior to extinction training on day 3. […] Injection volumes were 10 mL/kg. The study was run in 2 cohorts. Data were presented as mean±standard error of the mean of the percentage (%) of the session time spent freezing (absence of movement other than respiration) or activity counts during the 2-minute acclimation period.

[3] = racemic MDMA 7.8 mg/kg IP, Day 1, persisted out to Day 2, vs vehicle
[4] = racemic MDMA 7.8 mg/kg IP, any day of testing (Days 1, 2, 6, 11)
[5] = Day 3, racemic MDMA 7.8 mg/kg IP
[6] = Day 4, racemic MDMA 7.8 mg/kg IP
[7] = Days 8 and 13, single racemic MDMA 7.8 mg/kg IP on Day 3
[8] = R-MDMA all 3 dose levels (10, 17, 30 mg/kg IP), only on Day 1
[9] = Days 8 and 13, single R-MDMA 30 mg/kg IP on Day 3

CNC(C)Cc1ccc2c(c1)OCO2 (racemic) [Racemic MDMA, 3,4-methylenedioxymethamphetamine]
vital signs (systolic and diastolic blood pressure and heart rate) (PTSD participants; MDMA group, Phase 3 clinical trial (Mitchell et al., 2021)): transient increase in vital signs
efficacy for PTSD (PTSD participants; Phase 3 clinical trial (Mitchell et al., 2021)): efficacy
transient increase in body temperature to (PTSD participants; two participants in the MDMA group): 38.1 °C
body temperature (rats): significant increase in body temperature
total distance traveled (C57BL/6 mice [1]; racemic MDMA 7.8 mg/kg IP, Day 1, persisted out to Day 2, 30-minute test, vs vehicle): significantly increased
total ambulatory counts (C57BL/6 mice [1]; [3]): increased
total ambulatory time (C57BL/6 mice [1]; [3]): increased
total vertical counts (C57BL/6 mice [1]; [4]): did not alter
total vertical time (C57BL/6 mice [1]; [4]): did not alter
activity counts vs vehicle (C57BL/6 mice [2]; [5]): significant increase in activity
freezing vs vehicle (C57BL/6 mice [2]; [5]): significantly reduced freezing
activity counts vs vehicle (C57BL/6 mice [2]; [6]): significantly increased activity
freezing vs vehicle (C57BL/6 mice [2]; [6]): significantly reduced freezing
activity counts vs vehicle (C57BL/6 mice [2]; [7]): significant increases in activity
freezing vs vehicle (C57BL/6 mice [2]; [7]): significantly reduced freezing

CNC(C)Cc1ccc2c(c1)OCO2 (single isomer, unassigned) [R-MDMA, R(−)-3,4-methylenedioxymethamphetamine]
total ambulatory time (C57BL/6 mice [1]; R-MDMA 2 highest doses (17, 30 mg/kg IP), only on Day 1): significantly increased
total distance traveled (C57BL/6 mice [1]; R-MDMA 10, 17, 30 mg/kg IP, any dose, any day of testing): no significant increase
total vertical counts (C57BL/6 mice [1]; [8]): significantly reduced
total vertical time (C57BL/6 mice [1]; [8]): significantly reduced
total ambulatory counts (C57BL/6 mice [1]; R-MDMA highest dose (30 mg/kg IP), only on Day 1): significantly increased
total vertical time (C57BL/6 mice [1]; R-MDMA lowest dose (10 mg/kg IP), day 2 only): significant increase
freezing vs vehicle (C57BL/6 mice [2]; Day 3 (extinction training, single IP dose 30 min prior), R-MDMA 17 and 30 mg/kg): reduced freezing
freezing vs vehicle (C57BL/6 mice [2]; Day 3, R-MDMA 10 mg/kg IP): no significant effect on freezing
activity counts vs vehicle (C57BL/6 mice [2]; Day 3, all doses of R-MDMA (10, 17, 30 mg/kg IP)): Significantly increased activity counts
freezing vs vehicle (C57BL/6 mice [2]; Day 4 (day after single dose), R-MDMA 10, 17 and 30 mg/kg IP): significantly reduced freezing
activity vs vehicle (C57BL/6 mice [2]; Day 4, R-MDMA 10 mg/kg IP): without a significant increase in activity
activity counts vs vehicle (C57BL/6 mice [2]; Day 4, R-MDMA 30 mg/kg IP): significantly increased activity
locomotor activity vs vehicle (C57BL/6 mice [2]; Days 3, 4, 8, 13, R-MDMA 17 mg/kg IP on Day 3): significantly increased locomotor activity only on the day of administration
freezing significantly reduced (C57BL/6 mice [2]; Days 8 and 13, single R-MDMA 17 mg/kg IP on Day 3): but not on Days 8 and 13
activity counts vs vehicle (C57BL/6 mice [2]; [9]): significant increases in activity
freezing vs vehicle (C57BL/6 mice [2]; [9]): significantly reduced freezing
